# Measured values published in patent US7135475B2, “Amide substituted xanthine derivatives” (Hoffmann-La Roche Inc., priority 2002, dated 2006).
# Target: T1, recombinant human cytosolic PEPCK (Homo sapiens, UniProt P35558)
# T1 sequence (P35558 1-622): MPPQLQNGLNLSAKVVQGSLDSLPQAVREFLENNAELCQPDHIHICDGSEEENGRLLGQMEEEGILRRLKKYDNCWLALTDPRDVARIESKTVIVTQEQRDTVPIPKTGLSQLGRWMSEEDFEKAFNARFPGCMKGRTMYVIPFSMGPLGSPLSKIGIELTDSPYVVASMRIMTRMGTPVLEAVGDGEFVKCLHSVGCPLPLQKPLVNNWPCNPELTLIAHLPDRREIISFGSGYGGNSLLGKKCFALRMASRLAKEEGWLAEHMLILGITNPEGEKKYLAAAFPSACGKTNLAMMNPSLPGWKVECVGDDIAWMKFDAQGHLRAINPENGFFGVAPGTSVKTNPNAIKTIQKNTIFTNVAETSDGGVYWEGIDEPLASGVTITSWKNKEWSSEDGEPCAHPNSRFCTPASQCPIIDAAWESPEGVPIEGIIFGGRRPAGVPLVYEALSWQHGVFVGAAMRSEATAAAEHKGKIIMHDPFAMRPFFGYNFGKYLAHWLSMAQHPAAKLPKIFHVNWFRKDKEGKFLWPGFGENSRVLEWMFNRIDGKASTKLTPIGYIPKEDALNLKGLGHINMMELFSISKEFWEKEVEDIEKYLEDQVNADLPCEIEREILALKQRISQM
# Assay: PEPCK enzyme assay (coupled pyruvate kinase/lactate dehydrogenase, absorbance at 340)
# Format: biochemical
# Details: recombinant human cytosolic GST-PEPCK; GTP and OAA at 3 fold and 10 fold Km; final DMSO 10%; room temperature, twenty minutes; read-out: In vitro IC50
# Method: E. coli cells expressing GST-PEPCK were suspended in 5 volumes of lysis buffer (50 mM Tris-hydroxymethyl aminomethyl (TRIS), 150 mM sodium chloride (NaCl), 10 mM ethylene-diametetraacetic acid (EDTA), 5 mM dithiothreitol(DTT), 1% Nonidet P-40, pH 7.4) in the presence of protease inhibitors, incubated with lysozyme at 200 micrograms/ml for 30 min. at room temperature, and sonicated 4×30 seconds at 4 degrees C. After centrifugation at 12,000×g for 20 min. to remove insoluble material, the supernatant was loaded onto glutathione Sepharose (Pharmacia), washed with lysis buffer followed by washing with lysis buffer in the absence of NP-40. GST-PEPCK was eluted with the same buffer containing 20 mM glutathione. The eluted protein was concentrated and dialyzed against 25 mM Hepes(N-[2-hydroxyethyl]piperazine-N′[2-ethanesulfonic acid), 150 mM NaCl, 2.5 mM EDTA, 5 mM DTT, 30% glycerol, pH 7.4, and stored at −20 ° C.
# The inhibitory effect of the compounds of the present invention on PEPCK enzymatic activity was determined using recombinant human cytosolic PEPCK, expressed and purified from E.coli as a GST-fusion. Guanosine triphosphate (GTP) and manganese dependent PEPCK enzyme activity catalyzed the decarboxylation of oxalacetate leading to the formation of guanosine diphosphate (GDP) and phosphoenol pyruvate (PEP). This reaction is coupled to pyruvate kinase and lactate dehydrogenase catalyzed reactions and the overall reaction rate determined by measuring the change in absorbance at 340 nm (Chang, H. C. and Lane M. D., J. Biol.Chem. 241:2413–2420, 1966). The following modifications were made to the protocol: 2.5 μg of recombinant, human cytosolic glutathione-S-transferase (GST)-PEPCK was added to a reaction mixture at room temperature which contained 0.3 mM GTP, 0.3 mM oxaloacetate (OAA), 3 mM magnesium chloride (MgCl2), 0.075 mM manganese chloride (MnCl2), 30 mM potassium phosphates (KPO4), pH 7.6, 1 mM dithiothreitol (DTT), 0.2 mM adenosine diphosphate (ADP), 1 mM nicotinamide adenine dinucleotide, reduced form (NADH), 0.9 Units/ml each of pyruvate kinase and lactate dehydrogenase and 1 mg/ml bovine serum albumin (BSA). Test compounds were added such that final concentration of DMSO was 10%. Reactions were run for twenty minutes.
# Km values for GTP and OAA were determined according to Michelis-Menton conditions as described in Cornish-Bowden (Fundamentals of Enzyme Kinetics, 1995) in essentially the coupled assay conditions described above. […] Test compounds were added to reactions over a range of concentrations and IC50's were calculated from plots of inhibitor concentration versus enzyme rate. This method of determination of IC50 values is equally applicable to calculations based on PEPCK cellular assay.
# The in vitro biological activity of several representative preferred compounds of the present invention in the foregoing PEPCK enzymatic assay is presented in Table 1.
row,SMILES,IC50 [nM]
1,"CN(C(=O)c1cccnc1O)c1ccc(Cc2nc3c([nH]2)c(=O)n(Cc2ccccc2F)c(=O)n3CC2CC2)cc1 [Example 101, N-{4-[3-Cyclopropylmethyl-1-(2-fluorobenzyl)-2,6-dioxo-2,3,6,7-tetrahydro-1H-purin-8-ylmethyl]-phenyl}-2-hydroxy-N-methyl-nicotinamide]",630
2,"CCN(C(=O)c1c(C)nn(C)c1C)c1ccc(Cc2nc3c([nH]2)c(=O)n(Cc2ccccc2F)c(=O)n3CC2CC2)cc1 [Example 117, 1,3,5-Trimethyl-1H-pyrazole-4-carboxylic acid {4-[3-cyclopropylmethyl-1-(2-fluorobenzyl)-2,6-dioxo-2,3,6,7-tetrahydro-1H-purin-8-ylmethyl]-phenyl}-ethyl-amide]",190
3,"CC(=O)Nc1cccc(C(=O)N(C)c2ccc(Cc3nc4c([nH]3)c(=O)n(Cc3ccccc3F)c(=O)n4CC3CC3)cc2)n1 [Example 79, 6-Acetylamino-pyridine-2-carboxylic acid {4-[3-cyclopropylmethyl-1-(2-fluorobenzyl)-2,6-dioxo-2,3,6,7-tetrahydro-1H-purin-8-ylmethyl]-phenyl}-methyl-amide]",560
4,"Cc1ccc(C(=O)N(c2ccc(Cc3nc4c([nH]3)c(=O)n(Cc3ccccc3F)c(=O)n4CC3CC3)cc2)C(C)C)cn1 [Example 119, N-{4-[3-Cyclopropylmethyl-1-(2-fluorobenzyl)-2,6-dioxo-2,3,6,7-tetrahydro-1H-purin-8-ylmethyl]-phenyl}-N-isopropyl-6-methyl-nicotinamide]",310
5,"CC(=O)Nc1csc(C)c1C(=O)N(C)c1ccc(Cc2nc3c([nH]2)c(=O)n(Cc2ccccc2F)c(=O)n3CC2CC2)cc1 [Example 113, 4-Acetylamino-2-methyl-thiophene-3-carboxylic acid {4-[3-cyclopropylmethyl-1-(2-fluorobenzyl)-2,6-dioxo-2,3,6,7-tetrahydro-1H-purin-8-ylmethyl]-phenyl}-methyl-amide]",740
6,"CN(C(=O)c1sccc1C(N)=O)c1ccc(Cc2nc3c([nH]2)c(=O)n(Cc2ccccc2F)c(=O)n3CC2CC2)cc1 [Example 115, Thiophene-2,3-dicarboxylic acid 3-amide 2-({4-[3-cyclopropylmethyl-1-(2-fluorobenzyl)-2,6-dioxo-2,3,6,7-tetrahydro-1H-purin-8-ylmethyl]-phenyl}-methyl-amide)]",930
7,"COc1ccc(C(=O)N(C)c2ccc(Cc3nc4c([nH]3)c(=O)n(Cc3ccccc3F)c(=O)n4CC3CC3)cc2)c(OC)n1 [Example 90, N-{4-[3-cyclopropylmethyl-1-(2-fluorobenzyl)-2,6-dioxo-2,3,6,7-tetrahydro-1H-purin-8-ylmethyl]-phenyl}-2,6-dimethoxy-N-methyl-nicotinamide]",340
8,"CN(C(=O)c1csnn1)c1ccc(Cc2nc3c([nH]2)c(=O)n(Cc2ccccc2F)c(=O)n3CC2CC2)cc1 [Example 111, [1,2,3]Thiadiazole-4-carboxylic acid {4-[3-cyclopropylmethyl-1-(2-fluorobenzyl)-2,6-dioxo-2,3,6,7-tetrahydro-1H-purin-8-ylmethyl]-phenyl}-methyl-amide]",660
9,"CC(C)N(C(=O)Cc1cccnc1)c1ccc(Cc2nc3c([nH]2)c(=O)n(Cc2ccccc2F)c(=O)n3CC2CC2)cc1 [Example 120, N-{4-[3-Cyclopropylmethyl-1-(2-fluorobenzyl)-2,6-dioxo-2,3,6,7-tetrahydro-1H-purin-8-ylmethyl]-phenyl}-N-isopropyl-2-pyridin-3-yl-acetamide]",400
10,"CN(C(=O)c1ccc(C#N)nc1)c1ccc(Cc2nc3c([nH]2)c(=O)n(Cc2ccccc2F)c(=O)n3CC2CC2)cc1 [Example 92, 6-Cyano-N-{4-[3-cyclopropylmethyl-1-(2-fluorobenzyl)-2,6-dioxo-2,3,6,7-tetrahydro-1H-purin-8-ylmethyl]-phenyl}-N-methyl-nicotinamide]",440
11,"CN(C(=O)c1cnn(C)c1)c1ccc(Cc2nc3c([nH]2)c(=O)n(Cc2ccccc2F)c(=O)n3CC2CC2)cc1 [Example 112, 1-Methyl-1H-pyrazole-4-carboxylic acid {4-[3-cyclopropylmethyl-1-(2-fluorobenzyl)-2,6-dioxo-2,3,6,7-tetrahydro-1H-purin-8-ylmethyl]-phenyl}-methyl-amide]",690

# The next lines start with the values.
row,IC50 [nM],SMILES
1,390,"Cc1ccc(C(=O)N(CC2CCC2)c2ccc(Cc3nc4c([nH]3)c(=O)n(Cc3ccccc3F)c(=O)n4CC3CCC3)cc2)cn1 [Example 121, N-Cyclobutylmethyl-N-{4-[3-cyclobutylmethyl-1-(2-fluorobenzyl)-2,6-dioxo-2,3,6,7-tetrahydro-1H-purin-8-ylmethyl]-phenyl}-6-methyl-nicotinamide]"
2,740,"Cc1oncc1C(=O)N(C)c1ccc(Cc2nc3c([nH]2)c(=O)n(Cc2ccccc2F)c(=O)n3CC2CC2)cc1 [Example 114, 5-Methyl-isoxazole-4-carboxylic acid {4-[3-cyclopropylmethyl-1-(2-fluorobenzyl)-2,6-dioxo-2,3,6,7-tetrahydro-1H-purin-8-ylmethyl]-phenyl}-methyl-amide]"
3,230,"Cc1nn(C)c(C)c1C(=O)N(C)c1ccc(Cc2nc3c([nH]2)c(=O)n(Cc2ccccc2F)c(=O)n3CC2CC2)cc1 [Example 102, 1,3,5-Trimethyl-1H-pyrazole-4-carboxylic acid {4-[3-cyclopropylmethyl-1-(2-fluorobenzyl)-2,6-dioxo-2,3,6,7-tetrahydro-1H-purin-8-ylmethyl]-phenyl}-methyl-amide]"
4,560,"CC(=O)Nc1ccc(Cc2nc3c([nH]2)c(=O)n(Cc2ccccc2F)c(=O)n3C[C@@H]2C[C@@H]2C(=O)O)cc1 (relative stereo) [Example 47, 2-[8-(4-Acetylamino-benzyl)-1-(2-fluorobenzyl)-2,6-dioxo-1,2,6,7-tetrahydro-purin-3-ylmethyl]-cyclopropanecarboxylic acid]"
5,420,"CN(C(=O)c1cccnc1)c1ccc(Cc2nc3c([nH]2)c(=O)n(Cc2ccccc2F)c(=O)n3CC2CC2)cc1 [Example 97, N-{4-[3-Cyclopropylmethyl-1-(2-fluorobenzyl)-2,6-dioxo-2,3,6,7-tetrahydro-1H-purin-8-ylmethyl]-phenyl}-N-methyl-nicotinamide]"
6,460,"CN(C(=O)c1cnccn1)c1ccc(Cc2nc3c([nH]2)c(=O)n(Cc2ccccc2F)c(=O)n3CC2CC2)cc1 [Example 99, Pyrazine-2-carboxylic acid {4-[3-cyclopropylmethyl-1-(2-fluorobenzyl)-2,6-dioxo-2,3,6,7-tetrahydro-1H-purin-8-ylmethyl]-phenyl}-methyl-amide]"
7,550,"Cc1nnsc1C(=O)N(C)c1ccc(Cc2nc3c([nH]2)c(=O)n(Cc2ccccc2F)c(=O)n3CC2CC2)cc1 [Example 108, 4-Methyl-[1,2,3]thiadiazole-5-carboxylic acid {4-[3-cyclopropylmethyl-1-(2-fluorobenzyl)-2,6-dioxo-2,3,6,7-tetrahydro-1H-purin-8-ylmethyl]-phenyl}-methyl-amide]"
8,550,"CN(C(=O)c1ccc(O)nc1)c1ccc(Cc2nc3c([nH]2)c(=O)n(Cc2ccccc2F)c(=O)n3CC2CC2)cc1 [Example 100, N-{4-[3-Cyclopropylmethyl-1-(2-fluorobenzyl)-2,6-dioxo-2,3,6,7-tetrahydro-1H-purin-8-ylmethyl]-phenyl}-6-hydroxy-N-methyl-nicotinamide]"
